Source: patent US12457954B2, “Sorghum plants having a mutant polynucleotide encoding the large subunit of mutated acetohydroxyacid synthase protein and increased resistance to herbicides” (Advanta Holdings BV, priority 2012, dated 2025)

What was measured:
Format in all cases: in vivo, Sorghum bicolor
[1] = test system: endogamic Sorghum line 80237; assay: Field spraying with imidazolinone herbicides, dry matter of aerial tissues, wild-type line; details: 10 days after spraying, mean of 3 experiments
Description: (§1) Subsequently, the effect to herbicide spraying on mutant imidazolinone-resistant plants ADV-IMI-R (original mutation) was compared to the response of endogamic Sorghum line 80237 (Advanta proprietary elite line). To that end, plants were treated on the field with three herbicides belonging to the imidazolinone family: imazethapyr, imazapir, and imazapic. Four different rates were assayed: 1×, 2×, 3×, and 4× for each of the herbicides.
(§2) Ten days after spraying, all plants were assayed for dry matter (DM) in aerial tissues.
(§3) The response of the ADV-IMI-R mutant of the invention was compared to that of endogamic line 80237. […] The disclosed values are the average of three experiments.
(§4) Sorghum line 80237 (Advanta's proprietary elite line) and imidazolinone-resistant ADV-IMI-R mutant of the present invention (original mutation) were sprayed on the field with three herbicides from the group of imidazolinones: imazethapyr, imazapyr, and imazapic. Four different rates were assayed for each of the herbicides: 1×, 2×, 3×, and 4× (being 1× the recommended application rate) (see Table 1 above):
(§5) Field experiments were carried out in Venado Tuerto, and planting took place on Dec. 1, 2010. The herbicide was sprayed 20 days after emergence (stage V6). All treatments were compared to their respective untreated controls. The experimental design consisted of plots divided into 3 replicates (main plot: treatment with herbicide; sub-plots: line).
(§6) Ten days after spraying, all plants were assayed for dry matter (DM) in aerial tissues. Herbicide response was assessed as a DM percentage in aerial tissue of the respective untreated control.
(§7) Thus, the line sensitive to herbicides i for each rate j was expressed as:
(§8) [formula] • DMij % Control is the mean value of 3 experiments for each treatment from each line.

[2] = test system: ADV-IMI-R mutant Sorghum line; assay: Field spraying with imidazolinone herbicides, dry matter of aerial tissues, resistant mutant; details: for DM % Control: ADV-IMI-R, 10 days after spraying, mean of 3 experiments; for Response of ADV-IMI-R mutant to herbicide: field spraying, even at a rate of 4×
Description: as §1, §2, §3, §4, §5, §6, §7, §8

[3] = test system: ADV-IMI-R × 90523 F2 progeny; assay: Phenotypic rating of segregating F2 population after spraying with imazethapyr; details: rate 3X
Description: Inheritance of resistance to imidazolinones, for example imazethapyr, was assessed in a segregating F2 Sorghum population generated by crossing an imazethapyr susceptible line with the ADV-IMI-R mutant. The F2 plants thus obtained were sprayed with imazethapyr (Pivot®, BASF) at a rate of 3×, 20 days in stage V6 after emergence and phenotypic symptoms were assessed 10 days after treatment.
The correlation between resistance phenotypes and the number of mutant alleles was analyzed using the SNP-SbAHAS marker. To that end, chlorosis and death phenotypes of individual plants from the F2 progeny (ADV-IMI-R×90523) were studied after spraying with imazethapyr. Concomitantly, the genotype of the SNP-SbAHAS marker was studied. The correlation between the molecular marker SNP-SbAHAS and resistance to imazethapyr (measured as a rating of phenotypes) was determined using the Chi-square Independence test.
A targeted crossing was carried out between Sorghum line 90523 (Advanta proprietary elite line, susceptible to imidazolinones) and the imidazolinone-resistant ADV-IMI-R mutant (VT09-9754-48-6-BK selection). The resulting F1 plants were auto-pollinated and F2 seeds were harvested. The F2 seeds were planted in the field in Venado Tuerto, in October 2010. The F2 plants (177 plants) were sprayed with imazethapyr (Pivot®, BASF) at a rate of 3× (where 1× is the rate recommended by the manufacturer for commercial use which is equivalent to 100 ml a.i./ha). Before spraying, leaf tissue from each of the 177 F2 plants from both ADV-IMI-R mutant (VT09-9754-48-6-BK selection) and wild-type line 90523 were collected to isolate genomic DNA, which was resuspended in water at a final concentration of 100 ng/μl for use in genotypic analysis.
Herbicide was sprayed 20 days after emergence (stage V6). The plants were assessed ten days after spraying, and the herbicidal effect was classified into three categories by visually assessed symptoms according to the following phenotypic scoring: • 1=no damage • 2=chlorotic • 3=death
Individual F2 progeny plants obtained by a ADV-IMI-R×90523 crossing were phenotypically classified (no damage, chlorosis and death) after spraying with imazethapyr (using the method of Example 4) and then genotypically classified using the molecular marker SNP-SbAHAS which is specific of the induced mutation in AHAS (using the method described in Example 5).

[4] = 10 days after treatment, 177 F2 plants

Row | Structure (SMILES) | DM % Control ([1]; rate 1X) | DM % Control ([1]; rate 2X) | DM % Control ([1]; rate 3X) | DM % Control ([1]; rate 4X) | DM % Control ([2]; rate 1X) | DM % Control ([2]; rate 2X) | DM % Control ([2]; rate 3X) | DM % Control ([2]; rate 4X) | Response of ADV-IMI-R mutant to herbicide [2] | Amount of F2 progeny, phenotype Chlorotic (rating 2) [3, 4] | Amount of F2 progeny, phenotype Death (rating 3) [3, 4] | Amount of F2 progeny, phenotype No damage (rating 1) [3, 4] | Amount of F2 individuals, genotype A/G, phenotype Chlorotic ([3]; heterozygous) | Amount of F2 individuals, genotype A/G, phenotype No damage ([3]; heterozygous) | Amount of F2 individuals, genotype A/A, phenotype Chlorotic ([3]; homozygous AHAS mutant) | Amount of F2 individuals, genotype A/A, phenotype No damage ([3]; homozygous AHAS mutant) | Amount of F2 individuals, genotype G/G, phenotype Death ([3]; wild-type homozygous)
1 | Cc1cnc(C2=NC(=O)C(C)(C(C)C)N2)c(C(=O)O)c1 (centres unmarked) [Imazapic] | 22% | 13% | 15% | 28% | 161% | 123% | 244% | 272% | resistant |  |  |  |  |  |  |  | 
2 | CC(C)C1(C)N=C(c2ncccc2C(=O)O)NC1=O (centres unmarked) [Imazapyr] | 14% | 21% | 14% | 19% | 139% | 140% | 235% | 191% | resistant |  |  |  |  |  |  |  | 
3 | CCc1cnc(C2=NC(C)(C(C)C)C(=O)N2)c(C(=O)O)c1 (centres unmarked) [Imazethapyr] | 17% | 12% | 14% | 23% | 162% | 175% | 263% | 273% | resistant | 84 | 43 | 50 | 83 | 13 | 1 | 37 | 43
